What all share (assay type): cell-based, Escherichia coli
The test system of experiment [1] is E. coli MG1655. As to the kind of experiment: High-throughput screening of FDA-approved drug library for antibiotic adjuvants (growth inhibition, OD600). Conditions: library drug alone, LB medium, 96-well, 8 h static culture at 37°C, relative to PMBN (positive) and DMSO (negative) controls, %, table head prints no unit.
For experiment [2], the system named is E. coli MG1655. The description is as above.
The test system of experiment [3] is E. coli MG1655. As to the kind of experiment: microbe, parasite or virus in culture. On the procedure: Checkerboard assays were performed to evaluate the synergistic effect of CAS in combination with antibiotics as previously described ([Cai et al., 2023]). Briefly, antibiotics and CAS were diluted two times with MHB medium (with or without Mg^2+ or EDTA) in a 96-well plate, respectively, to form an 8 × 8 medium, and an equal volume (200 μL/well) of bacterial suspension with the drug was cultured. A microplate reader was used to measure the OD600 value after 18 h of culture at 37°C (the OD600 value over 0.1 indicates bacterial growth). The fractional inhibitory concentration index (FICI) was calculated using the following formula: FICI = MICab/MICa + MICba/MICb. MICa and MICb are the corresponding MIC values of compounds A and B alone, respectively; MICab is the MIC value of compound A combined with compound B; and MICba is the MIC value of compound B combined with compound A. Indicative of synergy is FICI ≤0.5.

Setting [4] is: library drug with 2 μg/mL rifampin, LB medium, 96-well, 8 h static culture at 37°C, OD600, relative to PMBN (positive) and DMSO (negative) controls, %, table head prints no unit.

Counter-ions that a name gives are not always drawn. Like-named read-outs stand apart in the source and are kept apart here.

Turning to `CN1CCN(c2c(F)cc3c(=O)c(C(=O)O)cn4c3c2SCC4)CC1.Cl` [Rufloxacin hydrochloride], the “Growth inhibition, Compound” value in experiment [1] came to 113%. In experiment [2], the “Growth inhibition, Compound + rifampin” value was determined as 100%. In the case of `O=C(O)c1cn(C2CC2)c2cc(N3CCNCC3)c(F)cc2c1=O` [Ciprofloxacin hydrochloride hydrate], the “Growth inhibition, Compound” value in experiment [2] is 101%. As for `CO[C@@]1(NC(=O)CSC(F)F)C(=O)N2C(C(=O)[O-])=C(CSc3nnnn3CCO)CO[C@@H]21.[Na+]` [Flomoxef sodium], the “Growth inhibition, Compound” value in experiment [1] came to 108%. In experiment [2], the “Growth inhibition, Compound + rifampin” value amounted to 101%. On to `O=C(Cn1cnnn1)N[C@@H]1C(=O)N2C(C(=O)[O-])=C(CSc3nncs3)CS[C@H]12.[Na+]` [Ceftezole sodium], for which, in experiment [1], the “Growth inhibition, Compound” value worked out at 109%. Further, in experiment [2], the “Growth inhibition, Compound + rifampin” value was determined as 102%. In the case of “Echinocandin B nucleus hydrochloride [ECBN HCl]”, the “FICI in combination with rifampin” value in experiment [3] (8 × 8 checkerboard, MHB, 18 h at 37°C, FICI ≤0.5 indicates synergy) was over 1. Moreover, in experiment [3] (checkerboard assays, analogs of CAS), the “Synergistic activity with rifampin (in words)” value is given as “weak synergistic activity”.

Take Cefetamet pivoxil hydrochloride: the “Growth inhibition, Compound” value in experiment [1] is on record as 98%. Moreover, the “Growth inhibition, Compound + rifampin” value in experiment [2] stood at 79%.

Regarding `O=C(O)c1cn(C2CC2)c2cc(N3CCNCC3)c(F)cc2c1=O` [Ciprofloxacin hydrochloride], in experiment [2], the “Growth inhibition, Compound” value is 98%.

In the case of `COS(=O)(=O)[O-].C[n+]1c2ccccc2nc2ccccc21` [Phenazine methosulfate], in experiment [1], the “Growth inhibition, Compound” value stood at 80%. Besides, in experiment [2] (setting [4]), the “Growth inhibition, Compound + rifampin” value is 76%.

On to “Polymyxin B sulfate (1404-26-8 free base)”, for which, in experiment [2] (setting [4]), the “Growth inhibition, Compound + rifampin” value amounted to 104%.

Regarding `C=C1c2c(Cl)ccc(O)c2C(=O)C2=C(O)[C@]3(O)C(=O)C(C(N)=O)=C(O)[C@@H](N(C)C)[C@@H]3[C@@H](O)[C@H]12.O=C(O)c1cc(S(=O)(=O)O)ccc1O` [Meclocycline sulfosalicylate salt], the “Growth inhibition, Compound” value in experiment [1] came to 100%. Besides, in experiment [2], the “Growth inhibition, Compound + rifampin” value is listed as 100%.

Take Streptozocin: the “Growth inhibition, Compound” value in experiment [1] is 62%. Moreover, the “Growth inhibition, Compound + rifampin” value in experiment [2] is on record as 69%. With Colistin Methanesulfonate (sodium salt), the “Growth inhibition, Compound” value in experiment [1] is 87%. The “Growth inhibition, Compound + rifampin” value in experiment [2] (setting [4]) was found to be 102%. With `CCn1cc(C(=O)O)c(=O)c2cc3c(cc21)OCO3` [Oxolinic acid], the “Growth inhibition, Compound” value in experiment [1] amounted to 108%. Consider `CC1(C)S[C@@H]2[C@H](NC(=O)[C@H](N)c3ccccc3)C(=O)N2[C@H]1C(=O)OCOC(=O)[C@@H]1N2C(=O)C[C@H]2S(=O)(=O)C1(C)C` [Sultamicillin Tosylate], for which, in experiment [1], the “Growth inhibition, Compound” value came to 93%. The same measure, in the same setting: as for `N[C@@H]1[C@H]2CN(c3nc4c(cc3F)c(=O)c(C(=O)O)cn4-c3ccc(F)cc3F)C[C@@H]12` [Trovafloxacin mesylate], the figure is 116%; as for `C[C@@H](O)[C@H]1C(=O)N2C(C(=O)O)=C(S[C@@H]3CN[C@H](C(=O)N(C)C)C3)[C@H](C)[C@H]12` [Meropenem], 90%; as for `C[C@H]1COc2c(N3CCN(C)CC3)c(F)cc3c(=O)c(C(=O)O)cn1c23` [Levofloxacin hydrochloride], 110%.

In the case of `CO/N=C(\C(=O)N[C@@H]1C(=O)N2C(C(=O)OCOC(=O)C(C)(C)C)=C(Cn3nnc(C)n3)CS[C@H]12)c1csc(N)n1` [Cefteram pivoxil], the “Growth inhibition, Compound” value in experiment [1] was 110%. With Colistin sulfate (1066-17-7 free base), in experiment [1], the “Growth inhibition, Compound” value stood at 104%. In experiment [2] (setting [4]), the “Growth inhibition, Compound + rifampin” value is reported as 113%. As for `CO/N=C(\C(=O)N[C@@H]1C(=O)N2C(C(=O)O)=CCS[C@H]12)c1csc(N)n1` [Ceftizoxime], in experiment [1], the “Growth inhibition, Compound” value amounted to 101%.

For `CC1(C)S[C@@H]2[C@H](NC(=O)C(C(=O)O)c3ccccc3)C(=O)N2[C@H]1C(=O)O` (stereo partly drawn) [Carbenicillin disodium], in experiment [1], the “Growth inhibition, Compound” value was 89%. Turning to `CS(=O)(=O)c1ccc([C@@H](O)[C@@H](CF)NC(=O)C(Cl)Cl)cc1` [Florfenicol], in experiment [1], the “Growth inhibition, Compound” value was found to be 116%.

`Oc1ccc(Cl)cc1Cc1cc(Cl)ccc1O` [Dichlorophen]: the “Growth inhibition, Compound” value in experiment [1] is on record as 95%.

Regarding `CO/N=C(\C(=O)N[C@@H]1C(=O)N2C(C(=O)O)=C(COC(C)=O)CS[C@H]12)c1csc(N)n1` [Cefotaxime], the “Growth inhibition, Compound” value in experiment [1] worked out at 113%. As to `Cc1oc(=O)oc1CN1CCN(c2cc3c(cc2F)c(=O)c(C(=O)O)c2n3C(C)S2)CC1` (stereo not drawn) [Prulifloxacin], in experiment [1], the “Growth inhibition, Compound” value is 100%. Regarding `CCN1C(=O)C=CC1=O` [N-Ethylmaleimide], the “Growth inhibition, Compound” value in experiment [1] is 106%.

With `NC(=O)[C@@H]1CC[C@@H]2CN1C(=O)N2OS(=O)(=O)O` [Avibactam sodium], in experiment [1], the “Growth inhibition, Compound” value is on record as 46%.

With `COc1c(N2CCNC(C)C2)c(F)cc2c(=O)c(C(=O)O)cn(C3CC3)c12` (stereo not drawn) [Gatifloxacin], the “Growth inhibition, Compound” value in experiment [1] is listed as 100%. For `O=C(Nc1ccc([N+](=O)[O-])cc1Cl)c1cc(Cl)ccc1O` [Niclosamide], in experiment [1], the “Growth inhibition, Compound” value was found to be 45%. On to `CC1(C)S[C@@H]2[C@H](NC(=O)[C@H](C(=O)O)c3ccsc3)C(=O)N2[C@H]1C(=O)O` [Ticarcillin sodium], for which the “Growth inhibition, Compound” value in experiment [1] is given as 86%. `CN(C)[C@@H]1C(O)=C(C(N)=O)C(=O)[C@@]2(O)C(O)=C3C(=O)c4c(O)cccc4[C@@](C)(O)[C@H]3[C@H](O)[C@@H]12` [Oxytetracycline]: the “Growth inhibition, Compound” value in experiment [1] amounted to 66%. Regarding `N[C@@H](C(=O)N[C@@H]1C(=O)N2C(C(=O)O)=C(Cl)CS[C@H]12)c1ccccc1` [Cefaclor monohydrate], the “Growth inhibition, Compound” value in experiment [1] turned out to be 80%. Still for that read-out and setting: next, `CC1(C)S[C@@H]2[C@H](NC(=O)Cc3ccccc3)C(=O)N2[C@H]1C(=O)O` [Penicillin G sodium salt]: 38%.

`COCC1=C(C(=O)O)N2C(=O)[C@@H](NC(=O)/C(=N\OC)c3csc(N)n3)[C@H]2SC1` [Cefpodoxime (free acid)]: the “Growth inhibition, Compound” value in experiment [1] turned out to be 108%. As for `NC[C@@H]1O[C@H](O[C@H]2[C@@H](O)[C@H](O[C@@H]3[C@@H](O)[C@H](N)C[C@H](N)[C@H]3O[C@H]3O[C@H](CO)[C@@H](O)[C@H](O)[C@H]3N)O[C@@H]2CO)[C@H](N)[C@@H](O)[C@@H]1O` [Paromomycin Sulfate], the “Growth inhibition, Compound” value in experiment [1] was found to be 108%. Consider `CC1COc2c(N3CCN(C)CC3)c(F)cc3c(=O)c(C(=O)O)cn1c23` (stereo not drawn) [Ofloxacin], for which, in experiment [1], the “Growth inhibition, Compound” value is 107%.

In the case of `Cl.N[C@@H]1CCCCN(c2c(F)cc3c(=O)c(C(=O)O)cn(C4CC4)c3c2Cl)C1` [Besifloxacin HCl], in experiment [1], the “Growth inhibition, Compound” value worked out at 107%. As for `CN(C)c1ccc(O)c2c1C[C@H]1C[C@H]3[C@H](N(C)C)C(O)=C(C(N)=O)C(=O)[C@@]3(O)C(O)=C1C2=O` [Minocycline hydrochloride], the “Growth inhibition, Compound” value in experiment [1] stood at 91%.

With `COc1c(N2CCNC(C)C2)c(F)cc2c(=O)c(C(=O)O)cn(C3CC3)c12.Cl` (stereo not drawn) [Gatifloxacin hydrochloride], the “Growth inhibition, Compound” value in experiment [1] is given as 104%. Take `CC(=O)OC[C@H]1O[C@@H]([S-])[C@H](OC(C)=O)[C@@H](OC(C)=O)[C@@H]1OC(C)=O.CCP(CC)CC.[Au+]` [Auranofin]: in experiment [1], the “Growth inhibition, Compound” value is 64%. Moreover, the “Growth inhibition, Compound + rifampin” value in experiment [2] is reported as 60%.

For `C=C1c2cccc(O)c2C(=O)C2=C(O)[C@]3(O)C(=O)C(C(N)=O)=C(O)[C@@H](N(C)C)[C@@H]3[C@@H](O)[C@H]12` [Methacycline hydrochloride], the “Growth inhibition, Compound” value in experiment [1] is on record as 112%. With `CO/N=C(\C(=O)N[C@@H]1C(=O)N2C(C(=O)[O-])=C(C[n+]3ccc(N)n3CCO)CS[C@H]12)c1csc(N)n1.O=S(=O)(O)O` [Cefoselis Sulfate], the “Growth inhibition, Compound” value in experiment [1] was found to be 107%. Turning to `S=C=NCc1ccccc1` [Benzyl isothiocyanate], the “Growth inhibition, Compound” value in experiment [1] stood at 71%. Take `CO/N=C(/C(=O)N[C@@H]1C(=O)N2C(C(=O)O)=C(CSC(=O)c3ccco3)CS[C@H]12)c1csc(N)n1.Cl` [Ceftiofur hydrochloride]: in experiment [1], the “Growth inhibition, Compound” value is listed as 84%. Consider `C[C@@H]1O[C@@H]1P(=O)(O)O.NC(CO)(CO)CO` [Fosfomycin Tromethamine], for which the “Growth inhibition, Compound” value in experiment [1] is reported as 104%. Consider `CN(C)CCn1nnnc1SCC1=C(C(=O)O)N2C(=O)[C@@H](NC(=O)Cc3csc(N)n3)[C@H]2SC1` [Cefotiam hydrochloride], for which the “Growth inhibition, Compound” value in experiment [1] worked out at 105%. On to Colistimethate Sodium, for which the “Growth inhibition, Compound” value in experiment [1] turned out to be 94%. Also, in experiment [2] (setting [4]), the “Growth inhibition, Compound + rifampin” value is on record as 95%.

`Oc1c(Br)cc(Br)c2cccnc12` [Broxyquinoline]: the “Growth inhibition, Compound” value in experiment [1] amounted to 103%.

The values above are taken from paper PMC11358092, “Caspofungin enhances the potency of rifampin against Gram-negative bacteria” (Frontiers in Microbiology, 2024).
